The structures appear in SMILES notation.

The target in the first data set is T1, Caspase-3 (Homo sapiens, UniProt P42574).
T1 sequence (P42574 whole entry): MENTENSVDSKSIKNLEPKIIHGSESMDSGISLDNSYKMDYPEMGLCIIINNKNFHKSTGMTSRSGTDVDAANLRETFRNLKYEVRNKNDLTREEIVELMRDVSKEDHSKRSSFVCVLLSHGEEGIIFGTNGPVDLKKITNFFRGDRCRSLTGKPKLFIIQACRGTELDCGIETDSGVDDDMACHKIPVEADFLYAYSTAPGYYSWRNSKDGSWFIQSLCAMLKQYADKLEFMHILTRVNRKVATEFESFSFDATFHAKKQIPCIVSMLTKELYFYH
Description: Inhibition of human recombinant caspase-3 catalytic domain using Ac-DEVD-pNA as substrate preincubated for 30 mins before substrate addition measured after 3 mins.
In general, IC50 refers to the concentration needed to halve the response being measured. As for `CCOC(=O)C1=C(Nc2ccccc2)C(=O)N(c2ccccc2)C1`, the IC50 is greater than 45 µM.

`CCOC(=O)C1=C(Nc2ccc(F)cc2)C(=O)N(c2ccc(F)cc2)C1`: the IC50 is greater than 45 µM.

As to `CCOC(=O)C1=C(NC2CCCCC2)C(=O)N(C2CCCCC2)C1`, the IC50 is greater than 45 µM.

For `CCCN1C(=O)C(Nc2ccc(Br)cc2)=C(C(=O)OCC)C1c1ccccc1` (centres undefined), the IC50 was greater than 45 µM.

`CCCNC1=C(C(=O)OC)CN(c2ccccc2)C1=O`: the IC50 is greater than 45 µM.

System in another data set: not listed separately
The data set can be described thus: Octanol-water partition coefficient, log P of the compound by Shake-flask method. Format: physicochemical.
Broadly, the logP is the decadic logarithm of the partition coefficient of the neutral form, usually between octanol and water. A low value points to a more hydrophilic compound. For the compound `CCOC(=O)C1=C(NC2CCCCC2)C(=O)N(c2ccc(Br)cc2)C1`, the logP was determined as 1.8.

The compound `CCOC(=O)C1=C(Nc2cccc3ccccc23)C(=O)N(C2CCCCC2)C1c1ccccc1` (centres undefined) displayed a logP of 2.

In the case of `CCOC(=O)C1=C(Nc2ccc(Br)cc2)C(=O)N(C2CCCCC2)C1c1ccccc1` (centres undefined), the logP was found to be 2.25.

`CCOC(=O)C1=C(Nc2ccc(Br)cc2)C(=O)N(c2ccc(Br)cc2)C1` had a lipophilicity (logP) of 1.75.
